Laboratory results as given in publication PMC10447463, “Data-mining unveils structure–property–activity correlation of viral infectivity enhancing self-assembling peptides” (Nature Communications, 2023).
Values joined by “and” are separate entries in the source; they are usually repeats but may differ in a detail not shown here. Identical values can stand only once. Like-named read-outs stand apart in the source and are kept apart here.

How the values were obtained:
[1] = β-sheet content by ATR-FT-IR; format: physicochemical; conditions: ATR-FT-IR
Outline: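 Lyophilized PNF (from 1 mg/mL) scanned 64× on diamond ATR, 2 cm^-1 resolution; β-sheet content per earlier report. CR: spin through 3 kDa MWCO, 16200 x g, 4 °C, 45 min; lyophilize filtrate + unfiltered; DMSO; fluorescamine 20 min RT; ex 365/em 470.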

[2] = system: HIV-1 infection of TZM-bl cells; experiment: HIV-1 infectivity enhancement assay, β-galactosidase luminescence; format: cell-based; conditions: for Absolute Infectivity / RLU /s (Feb2021): unrounded values of the 1.3 µM column; for infectivity: infectivity class (low / medium / high) of each library peptide, main list in c1-c6, same classes repeated in sub-lists of sequences containing the hydrophobicity/charge patterns P+,H0,P+,H0,P0,H0,P0, P+,H0,P0,H0,P0,H0,P0, P+,H0,P0,H0; for Log10 Inf. rel. to EF-C: log10 of HIV-1 infection of TZM-bl cells relative to EF-C, Fig S15 source data, asymmetric std dev errors
[3] = Turbidity, derived count rate of scattered light; format: physicochemical; conditions: for Zeta Count Rate / kcps: derived count rate of scattered light, mean
Outline: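 Samples: 1 mg/mL in PBS pH 7.4 (from DMSO), 1 d at RT, then diluted in 1 mM KCl immediately before measurement. Triplicates, two independent runs averaged.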

[4] = Zeta-potential measurement; format: physicochemical; conditions: for Zeta Pot. / mV: mean; for Zeta-pot. / mV: zeta potential of peptide, Fig S15 source data
Outline: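 Readout: zeta potential (mV) derived by Smoluchowski from measured electrophoretic mobility. Preformed aggregates (1 mg/mL peptide, PBS pH 7.4, RT for 1 d) were diluted into dilute KCl electrolyte (1 mM) shortly before analysis.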

[5] = Feb2021, 1.3 µM value relative to virus only (0 µM)
[6] = Feb2021, Log10 of infectivity relative to EF-C
[7] = Feb2021, n-fold infectivity relative to EF-C
[8] = Feb2021, n-fold enhancement relative to EF-C
[9] = Feb2021 run, infectivity n-fold relative to virus alone
[10] = Feb2021 run, log10 of infectivity relative to EF-C
[11] = Feb2021 run, n-fold infectivity relative to EF-C
[12] = category 1 or 0 from count rate, key not given
[13] = std deviation in separate column

Sequence | n-fold to virus (Feb2021) [2, 5] | Log10 of Rel to EFC (Feb2021) [2, 6] | Rel-to EFC (Feb-2021) [2, 7] | Absolute Infectivity / RLU /s (Feb2021) ([2]; Feb2021) [RLU /s] | infectivity [2] | Log10 Inf. rel. to EF-C [2] | Zeta Count Rate Category ([3]; category 1/0, no key printed) | Zeta Count Rate / kcps ([3]; std deviation in next column) [kcps] | Zeta category ( +1 = if > 4 mV;-1 = if < -4 mV; 0 = -4mV to 4 mV) [4] | Zeta Pot. / mV ([4]; Std Zeta in next column) [mV] | Zeta-pot. / mV [4] [mV] | Rel-to EFC (Feb-2021) [2, 8] | n-fold to virus (Feb2021) [2, 9] | Log10 of Rel to EFC (Feb2021) [2, 10] | Rel-to EFC (Feb-2021) [2, 11] | Zeta Count Rate Category [3, 12] | Zeta Count Rate / kcps [3, 13] [kcps] | Zeta category ( +1 = if > 4 mV;-1 = if < -4 mV; 0 = -4mV to 4 mV) ([4]; category from zeta potential) | Zeta Pot. / mV ([4]; Std in separate column) [mV] | also measured
CEFEFQFNMWQ [TM140] | 5.923 | -0.8509 | 0.141 | 2517 | medium | -0.8509 | 1 | 186.3 | -1 (-1 = if < -4 mV) | -34.23 | -34.23 | – | – | – | – | – | – | – | – | FTIR ß-sheet content/ % [1]: 51% and 51.48%; Rel-to EFC (Feb-2021) ([2]; Feb2021, infectivity enhancement relative to EF-C): 0.141; Zeta Count Rate Category ([3]; category 1 or 0 derived from the count rate, key not given): 1; Zeta category ( +1 = if > 4 mV;-1 = if < -4 mV; 0 = -4mV to 4 mV) ([4]; category derived from the zeta potential): -1 (-1 = if < -4 mV)
QCKFKFQFNM [CK8] | 21.52 | -0.2906 | 0.5121 | 16353.33333 | medium | -0.2906 | 1 | 3669.6 | 1 (+1 = if > 4 mV) | 15.7 | 15.7 | 0.5121 | 21.52 | -0.2906 | 0.5121 | 1 | 3669.6 | 1 (+1 = if > 4 mV) | 15.7 | –
QCKIKIQI [CK3] | 4.706 | -0.9508 | 0.112 | 3577 | medium | -0.9508 | 1 | 12426.83333 | 1 (+1 = if > 4 mV) | 9.52 | 9.52 | 0.112 | 4.706 | -0.9508 | 0.112 | 1 | 12426.83333 | 1 (+1 = if > 4 mV) | 9.52 | –
QCKIKIQINM [CK2] | 16.64 | -0.4024 | 0.3959 | 15250 | medium | -0.4024 | 1 | 9524 | 1 (+1 = if > 4 mV) | 11.37 | 11.37 | 0.3959 | 16.64 | -0.4024 | 0.3959 | 1 | 9524 | 1 (+1 = if > 4 mV) | 11.37 | –
